Earlier results in patent publication US20080166420A1, “Krill Oil Compositions” (priority 2007, published 2008).

## O=C(O)c1cccnc1 [Niacin, niacin]
Clinically shown
  C-reactive protein (CRP): reduce
  high density lipoproteins: significant increase
  lipoprotein (a): significant reduction
  low density lipoproteins: reduction
  total cholesterol: reduction
  triglycerides: significant reduction
In vivo
  fibrinogen: reduce
